Assay results reported in publication PMC13342671 (Nature Communications, 2026).

Experiments:
Format in all cases: cell-based, Human
[1] = tested on: A549-p53^Y220C cells; assay: Apoptosis FACS; details: 3 µM
[2] = tested on: p53 pathway genes in BxPC-3 cells; assay: RNA sequencing / GSEA in BxPC-3 cells; details: 3 µM, 4 h
[3] = tested on: A549-p53^Y220C cells; assay: SA-β-galactosidase senescence stain; details: 3 µM, 6-day treatment

Row | SMILES | apoptosis induction (in words) [1] | share of the top 116 p53 target genes with significantly increased expression [2] | SA-β-gal senescence staining (in words) [3]
1 | Cc1sc2c(c1C)C(c1ccc(Cl)cc1)=N[C@@H](CC(=O)OC(C)(C)C)c1nnc(C)n1-2 [JQ1] | slightly less apoptosis | 57.0% | relatively few senescent cells
2 | CCn1c2ccc(CNCCOCCOCCOCCn3cc(COc4ccc(CCc5nc6cc(-c7c(C)noc7C)ccc6n5CCN5CCOCC5)cc4F)nn3)cc2c2ccc(-c3cc(C)cs3)cc21 [MS78] |  | 22.8% | 
